According to PMC4823786, “Redirection of pyruvate flux toward desired metabolic pathways through substrate channeling between pyruvate kinase and pyruvate-converting enzymes in Saccharomyces cerevisiae” (Scientific Reports, 2016):

Target: T1, His6-LdhA (Leuconostoc mesenteroides, UniProt Q03VC9)
T1 construct: gene LEUM_1756; N-terminal His6 tag (pET28b), expressed in E. coli Rogetta gami2 (DE3) pLysS, Ni-NTA purified
Assay: NADH oxidation monitored at […] nm
Assay type: biochemical
Details: 10 mM sodium pyruvate, 0.2 mM β-NADH, 50 mM Tris-HCl pH 7.0

T1 sequence (Q03VC9 entry or part of it): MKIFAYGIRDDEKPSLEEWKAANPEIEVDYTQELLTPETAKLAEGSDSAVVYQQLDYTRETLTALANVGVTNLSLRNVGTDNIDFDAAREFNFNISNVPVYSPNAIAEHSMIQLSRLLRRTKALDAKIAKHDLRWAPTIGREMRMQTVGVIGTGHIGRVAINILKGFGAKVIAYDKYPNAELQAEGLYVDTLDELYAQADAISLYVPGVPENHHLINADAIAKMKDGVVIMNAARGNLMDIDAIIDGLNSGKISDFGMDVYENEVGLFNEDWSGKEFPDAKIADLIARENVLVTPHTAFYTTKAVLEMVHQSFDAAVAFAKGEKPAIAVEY

| Compound | NADH oxidation monitored at 340 nm |
| --- | --- |
| NC(=O)C1=CN([C@@H]2O[C@H](COP(=O)(O)OP(=O)(O)OC[C@H]3O[C@@H](n4cnc5c(N)ncnc54)[C@H](O)[C@@H]3O)[C@@H](O)[C@H]2O)C=CC1 [NADH] | reduction of pyruvate to lactate was monitored by measuring the oxidation rate of NADH |
| CC(=O)C(=O)O [pyruvate] | reduction of pyruvate to lactate was monitored by measuring the oxidation rate of NADH |
